Reference: patent publication US20090299044A1 (priority 2006, published 2009)
Bridge positions count the residues as written; N and C are the ends. Peptide text beside a SMILES is read from it.

Key:
human Kv1.3 (CHO) = biological target: T1, human Kv1.3 (CHO) (Homo sapiens, UniProt P22001); assay: cell-based
T1 construct: expressed in transfected cells; host or cells: CHO

human Kv1.1 (HEK293) = biological target: T2, human Kv1.1 (HEK293) (Homo sapiens, UniProt Q09470); assay: cell-based
T2 construct: expressed in transfected cells; host or cells: HEK293
T2 sequence (Q09470 whole entry): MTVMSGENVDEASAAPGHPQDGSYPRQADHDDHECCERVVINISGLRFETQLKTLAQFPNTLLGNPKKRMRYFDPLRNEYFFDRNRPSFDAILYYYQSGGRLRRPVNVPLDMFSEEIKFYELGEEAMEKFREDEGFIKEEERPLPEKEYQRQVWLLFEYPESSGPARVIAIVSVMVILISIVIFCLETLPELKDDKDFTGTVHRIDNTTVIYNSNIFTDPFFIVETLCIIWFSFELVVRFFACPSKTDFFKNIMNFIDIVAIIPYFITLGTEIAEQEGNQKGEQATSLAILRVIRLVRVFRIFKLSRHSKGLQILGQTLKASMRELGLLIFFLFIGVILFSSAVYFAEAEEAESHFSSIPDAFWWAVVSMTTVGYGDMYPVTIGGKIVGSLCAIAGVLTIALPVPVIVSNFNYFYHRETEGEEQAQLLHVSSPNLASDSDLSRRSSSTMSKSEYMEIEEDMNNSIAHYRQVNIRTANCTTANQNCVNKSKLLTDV

T1 sequence (P22001 whole entry): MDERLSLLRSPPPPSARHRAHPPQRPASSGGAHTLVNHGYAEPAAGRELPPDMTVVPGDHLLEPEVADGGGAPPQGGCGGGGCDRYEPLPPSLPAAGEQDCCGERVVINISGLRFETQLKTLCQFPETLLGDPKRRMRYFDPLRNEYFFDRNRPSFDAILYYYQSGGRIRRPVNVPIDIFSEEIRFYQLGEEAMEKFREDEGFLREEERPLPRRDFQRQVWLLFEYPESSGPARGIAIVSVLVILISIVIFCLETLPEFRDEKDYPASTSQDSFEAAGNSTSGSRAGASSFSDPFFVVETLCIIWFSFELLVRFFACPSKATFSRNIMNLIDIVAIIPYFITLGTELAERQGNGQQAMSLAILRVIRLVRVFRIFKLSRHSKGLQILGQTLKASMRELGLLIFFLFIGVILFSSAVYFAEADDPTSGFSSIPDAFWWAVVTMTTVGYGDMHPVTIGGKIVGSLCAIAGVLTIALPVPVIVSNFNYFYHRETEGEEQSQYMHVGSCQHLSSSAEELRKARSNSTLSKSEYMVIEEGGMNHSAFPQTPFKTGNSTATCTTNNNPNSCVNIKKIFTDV

CC[C@H](C)[C@@H]1NC(=O)[C@H](CCCCN)NC(=O)[C@@H](NC(=O)[C@H](CCCCN)NC(=O)[C@@H](NC(=O)[C@H](CC(N)=O)NC(=O)[C@@H](NC(=O)[C@@H](NC(=O)[C@@H](NC(=O)CN)C(C)C)[C@@H](C)CC)[C@@H](C)CC)C(C)C)CSSC[C@@H]2NC(=O)[C@H](CCCCN)NC(=O)[C@H](CCC(=O)O)NC(=O)[C@H](Cc3ccccc3)NC(=O)[C@H](CCCNC(=N)N)NC(=O)[C@H](CCSC)NC(=O)CNC(=O)[C@H](C)NC(=O)[C@H](CCCCN)NC(=O)[C@H](CCCCN)NC(=O)[C@@H]3CSSC[C@@H](C(=O)N[C@H](C(=O)N4CCC[C@H]4C(=O)N[C@@H](CCCCN)C(=O)O)[C@@H](C)O)NC(=O)[C@H](Cc4c[nH]cn4)NC(=O)[C@H](CSSC[C@H](NC(=O)[C@H](CCC(N)=O)NC(=O)[C@H](CCCNC(=N)N)NC(=O)[C@H](CO)NC1=O)C(=O)N[C@@H](CC(C)C)C(=O)N[C@@H](CCC(=O)O)C(=O)N1CCC[C@H]1C(=O)N3)NC(=O)[C@H](CCCCN)NC(=O)CNC(=O)[C@H](CC(N)=O)NC(=O)[C@H](CCSC)NC2=O [G26E] (H-GVIINVKCKISRQCLEPCKKAGMRFEKCMNGKCHCTPK-OH; disulfide 8-28, 14-33, 18-35) was tested. Which IC50 (human Kv1.3 (CHO)) did it give?
Its IC50 is over 3.33 nM.

And the IC50 (human Kv1.1 (HEK293))?
The IC50 was over 3.33 nM.

Which results are given for CC[C@H](C)[C@@H]1NC(=O)[C@H](CCCCN)NC(=O)[C@@H](NC(=O)[C@H](CCCCN)NC(=O)[C@@H](NC(=O)[C@H](CC(N)=O)NC(=O)[C@@H](NC(=O)[C@@H](NC(=O)[C@@H](NC(=O)CN)C(C)C)[C@@H](C)CC)[C@@H](C)CC)C(C)C)CSSC[C@@H]2NC(=O)[C@H](CCCCN)NC(=O)[C@H](CCCNC(=N)N)NC(=O)[C@H](Cc3ccccc3)NC(=O)[C@H](CCCNC(=N)N)NC(=O)[C@H](CCSC)NC(=O)CNC(=O)[C@H](C)NC(=O)[C@H](CCCCN)NC(=O)[C@H](CCCCN)NC(=O)[C@@H]3CSSC[C@@H](C(=O)N[C@H](C(=O)N4CCC[C@H]4C(=O)N[C@@H](CCCCN)C(=O)O)[C@@H](C)O)NC(=O)[C@H](Cc4c[nH]cn4)NC(=O)[C@H](CSSC[C@H](NC(=O)[C@H](CCC(N)=O)NC(=O)[C@H](CCCNC(=N)N)NC(=O)[C@H](CO)NC1=O)C(=O)N[C@@H](CC(C)C)C(=O)N[C@@H](CCC(=O)O)C(=O)N1CCC[C@H]1C(=O)N3)NC(=O)[C@H](CCCCN)NC(=O)CNC(=O)[C@H](CC(N)=O)NC(=O)[C@H](CCSC)NC2=O [G26R] (H-GVIINVKCKISRQCLEPCKKAGMRFRKCMNGKCHCTPK-OH; disulfide 8-28, 14-33, 18-35)?
IC50 (human Kv1.3 (CHO)): > 3.33 nM; IC50 (human Kv1.1 (HEK293)): > 3.33 nM

With CC[C@H](C)[C@@H]1NC(=O)[C@H](CCCCN)NC(=O)[C@@H](NC(=O)[C@H](CCCCN)NC(=O)[C@@H](NC(=O)[C@H](CC(N)=O)NC(=O)[C@@H](NC(=O)[C@@H](NC(=O)[C@@H](NC(=O)CN)C(C)C)[C@@H](C)CC)[C@@H](C)CC)C(C)C)CSSC[C@@H]2NC(=O)[C@H](CCCCN)NC(=O)CNC(=O)[C@H](Cc3ccccc3)NC(=O)[C@H](CCCNC(=N)N)NC(=O)[C@H](CCSC)NC(=O)CNC(=O)[C@H](C)NC(=O)[C@H](CCCCN)NC(=O)[C@H](CCCCN)NC(=O)[C@@H]3CSSC[C@@H](C(=O)N[C@H](C(=O)N4CCC[C@H]4C(=O)N[C@@H](CCCCN)C(=O)O)[C@@H](C)O)NC(=O)[C@H](Cc4c[nH]cn4)NC(=O)[C@H](CSSC[C@H](NC(=O)[C@H](CCC(N)=O)NC(=O)[C@H](CCCNC(=N)N)NC(=O)[C@H](CO)NC1=O)C(=O)N[C@@H](CC(C)C)C(=O)N[C@@H](CCC(=O)O)C(=O)N1CCC[C@H]1C(=O)N3)NC(=O)[C@H](CCCCN)NC(=O)[C@H](C)NC(=O)[C@H](CC(N)=O)NC(=O)[C@H](CCSC)NC2=O [G31A] (H-GVIINVKCKISRQCLEPCKKAGMRFGKCMNAKCHCTPK-OH; disulfide 8-28, 14-33, 18-35) as the molecule, how does the IC50 (human Kv1.3 (CHO)) read?
The IC50 was 0.0702 nM.

And the IC50 (human Kv1.1 (HEK293))?
Its IC50 is 0.0618 nM.

For CC[C@H](C)[C@@H]1NC(=O)[C@H](CCCCN)NC(=O)[C@@H](NC(=O)[C@H](CCCCN)NC(=O)[C@@H](NC(=O)[C@H](CC(N)=O)NC(=O)[C@@H](NC(=O)[C@@H](NC(=O)[C@@H](NC(=O)CN)C(C)C)[C@@H](C)CC)[C@@H](C)CC)C(C)C)CSSC[C@@H]2NC(=O)[C@H](CCCCN)NC(=O)CNC(=O)[C@H](Cc3ccccc3)NC(=O)[C@H](CCCNC(=N)N)NC(=O)[C@H](CCSC)NC(=O)CNC(=O)[C@H](C)NC(=O)[C@H](CCCCN)NC(=O)[C@H](CCCCN)NC(=O)[C@@H]3CSSC[C@@H](C(=O)N[C@H](C(=O)N4CCC[C@H]4C(=O)N[C@@H](CCCCN)C(=O)O)[C@@H](C)O)NC(=O)[C@H](Cc4c[nH]cn4)NC(=O)[C@H](CSSC[C@H](NC(=O)[C@H](CCC(N)=O)NC(=O)[C@H](CCCNC(=N)N)NC(=O)[C@H](CO)NC1=O)C(=O)N[C@@H](CC(C)C)C(=O)N[C@@H](CCC(=O)O)C(=O)N1CCC[C@H]1C(=O)N3)NC(=O)[C@H](CCCCN)NC(=O)[C@H](CCC(=O)O)NC(=O)[C@H](CC(N)=O)NC(=O)[C@H](CCSC)NC2=O [G31E] (H-GVIINVKCKISRQCLEPCKKAGMRFGKCMNEKCHCTPK-OH; disulfide 8-28, 14-33, 18-35), which IC50 (human Kv1.3 (CHO)) is on record?
The IC50 was 0.012 nM.

What about the IC50 (human Kv1.1 (HEK293)) of the same molecule?
The IC50 was 0.00237 nM.

How did the IC50 (human Kv1.3 (CHO)) turn out when CC[C@H](C)[C@@H]1NC(=O)[C@H](CCCCN)NC(=O)[C@@H](NC(=O)[C@H](CCCCN)NC(=O)[C@@H](NC(=O)[C@H](CC(N)=O)NC(=O)[C@@H](NC(=O)[C@@H](NC(=O)[C@@H](NC(=O)CN)C(C)C)[C@@H](C)CC)[C@@H](C)CC)C(C)C)CSSC[C@@H]2NC(=O)[C@H](CCCCN)NC(=O)CNC(=O)[C@H](Cc3ccccc3)NC(=O)[C@H](CCCNC(=N)N)NC(=O)[C@H](CCSC)NC(=O)CNC(=O)[C@H](C)NC(=O)[C@H](CCCCN)NC(=O)[C@H](CCCCN)NC(=O)[C@@H]3CSSC[C@@H](C(=O)N[C@H](C(=O)N4CCC[C@H]4C(=O)N[C@@H](CCCCN)C(=O)O)[C@@H](C)O)NC(=O)[C@H](Cc4c[nH]cn4)NC(=O)[C@H](CSSC[C@H](NC(=O)[C@H](CCC(N)=O)NC(=O)[C@H](CCCNC(=N)N)NC(=O)[C@H](CO)NC1=O)C(=O)N[C@@H](CC(C)C)C(=O)N[C@@H](CCC(=O)O)C(=O)N1CCC[C@H]1C(=O)N3)NC(=O)[C@H](CCCCN)NC(=O)[C@H](CCCNC(=N)N)NC(=O)[C@H](CC(N)=O)NC(=O)[C@H](CCSC)NC2=O [G31R] was run?
Its IC50 is 0.0222 nM.

What about the IC50 (human Kv1.1 (HEK293)) of the same molecule?
Its IC50 is 0.00159 nM.

Which IC50 (human Kv1.3 (CHO)) does the source give for CC[C@H](C)[C@@H]1NC(=O)[C@H](CCCCN)NC(=O)[C@@H](NC(=O)[C@H](CCCCN)NC(=O)[C@@H](NC(=O)[C@H](CC(N)=O)NC(=O)[C@@H](NC(=O)[C@@H](NC(=O)[C@@H](NC(=O)CN)C(C)C)[C@@H](C)CC)[C@@H](C)CC)C(C)C)CSSC[C@@H]2NC(=O)[C@H](CCCCN)NC(=O)CNC(=O)[C@H](Cc3ccccc3)NC(=O)[C@H](CCCNC(=N)N)NC(=O)[C@H](CCSC)NC(=O)CNC(=O)[C@H](C)NC(=O)[C@H](CCCCN)NC(=O)[C@H](CCCCN)NC(=O)[C@@H]3CSSC[C@@H](C(=O)N[C@H](C(=O)N4CCC[C@H]4C(=O)N[C@@H](CCCCN)C(=O)O)[C@@H](C)O)NC(=O)[C@H](CCCNC(=N)N)NC(=O)[C@H](CSSC[C@H](NC(=O)[C@H](CCC(N)=O)NC(=O)[C@H](CCCNC(=N)N)NC(=O)[C@H](CO)NC1=O)C(=O)N[C@@H](CC(C)C)C(=O)N[C@@H](CCC(=O)O)C(=O)N1CCC[C@H]1C(=O)N3)NC(=O)[C@H](CCCCN)NC(=O)CNC(=O)[C@H](CC(N)=O)NC(=O)[C@H](CCSC)NC2=O [H34R] (H-GVIINVKCKISRQCLEPCKKAGMRFGKCMNGKCRCTPK-OH; disulfide 8-28, 14-33, 18-35) here?
The IC50 was 0.0136 nM.

What about the IC50 (human Kv1.1 (HEK293)) of the same molecule?
Its IC50 is 0.00449 nM.
